What was measured:
[1] = tested on: P. berghei liver stage (PbLuc); assay: P. berghei luciferase liver stage (PbLuc) assay in HepG2-A16-CD81 hepatocytes; format: cell-based, Plasmodium berghei; conditions: Plasmodium berghei; for IC50: HepG2-A16-CD81, 12pt dose response, read-out: PbLuc 12pt dose response: IC50; for Emax: HepG2-A16-CD81, 48 h, 12pt dose response, maximum inhibition
[2] = target: recombinant firefly luciferase (Photinus pyralis, UniProt P08659); assay: biochemical; conditions: dose response; for Emax: maximum inhibition, read-out: rLuc inhibition dose response: Maximum inhibition (%); for IC50: read-out: rLuc inhibition dose response: IC50
recombinant firefly luciferase, sequence (P08659 whole entry): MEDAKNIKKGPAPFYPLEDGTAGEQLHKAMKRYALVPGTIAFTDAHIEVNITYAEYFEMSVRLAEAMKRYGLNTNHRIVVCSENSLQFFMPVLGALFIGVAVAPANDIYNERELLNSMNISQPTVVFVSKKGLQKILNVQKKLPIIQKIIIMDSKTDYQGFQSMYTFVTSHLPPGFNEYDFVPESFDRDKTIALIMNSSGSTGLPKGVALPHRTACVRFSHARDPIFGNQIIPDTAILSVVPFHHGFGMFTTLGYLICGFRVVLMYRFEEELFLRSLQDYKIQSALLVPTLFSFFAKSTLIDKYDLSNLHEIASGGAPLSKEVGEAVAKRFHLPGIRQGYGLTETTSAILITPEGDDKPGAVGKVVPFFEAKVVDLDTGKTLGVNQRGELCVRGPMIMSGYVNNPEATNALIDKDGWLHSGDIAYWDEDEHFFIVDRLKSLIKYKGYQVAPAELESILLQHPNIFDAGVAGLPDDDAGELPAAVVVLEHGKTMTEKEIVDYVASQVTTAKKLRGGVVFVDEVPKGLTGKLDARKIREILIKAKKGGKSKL

[3] = HepG2 cytotoxicity screening (CellTiter-Glo); conditions: human, uninfected HepG2-A16-CD81 (EGFP) hepatocytes
[4] = tested on: HepG2-A16-CD81 hepatocytes; assay: HepG2 cytotoxicity screening (CellTiter-Glo); conditions: for HepG2 cytotoxicity 12pt dose response: Maximum inhibition (%): 12pt dose response

Row | SMILES | IC50 [1] [µM] | Emax [1] [%] | Emax [2] [%] | IC50 [2] [µM] | IC50 [3] [µM] | inhibition at 2 µM [3] [%] | HepG2 cytotoxicity 12pt dose response: Maximum inhibition (%) [4] [%] | HepG2 Cytotoxicity primary screen (2uM): % Inhibition [4] [%]
1 | COc1ccc(-c2ccc(C3CNCCO3)nc2)cc1 (stereo not shown) [UCSD-0802458] | < 0.000141 | 94 | 89.6 | 0.0276 | > 50 | 23.7 | -13.4 | –
2 | Cc1ccc(-c2ccc(C3CNCCO3)nc2)cc1 (stereo not shown) [UCSD-0802459] | < 0.000141 | 98.6 | 88.3 | 0.00428 | > 50 | 25.3 | 48.6 | –
3 | Cc1cc(-c2cnc(NCc3cccnc3)nc2C(C)(C)C)on1 [UCSD-0802583] | 10.1 | 86.4 | 6.14 | > 25 | > 25 | – | 45.3 | -8.43
4 | CC(C)(C)OC(=O)N1CCCN(Cc2ccon2)c2ccccc21 [UCSD-0805052] | 8.56 | 93.5 | 18.4 | > 25 | > 25 | 10.4 | 13.5 | –
5 | CCN1CC(CN(C)c2cc(C)nc(N)n2)Oc2ccccc21 (stereo not shown) [UCSD-0806866] | 5.15 | 93.5 | 15.4 | > 25 | 20.6 | -3.08 | 73.7 | –
6 | COC(=O)CSCc1noc(-c2ccc(C)cc2)n1 [UCSD-0807935] | 0.0335 | 77.1 | 62.8 | > 25 | > 25 | -4.01 | 3.73 | –
7 | N#Cc1c(Cl)nsc1NCc1cccnc1OCC(F)(F)F [UCSD-0808444] | 14.9 | 69.5 | 43.9 | > 25 | > 25 | – | -0.683 | 4.29
8 | CCNc1ccnc(CN2CCCC2C(=O)Nc2nccs2)c1 (stereo not shown) [UCSD-0809356] | 4.46 | – | 21.2 | > 25 | > 25 | – | 2.09 | 1.30
9 | CC(C(=O)Nc1sccc1C(N)=O)N(C)CCOc1ccccc1 (stereo not shown) [UCSD-0809872] | 0.787 | 95.7 | 17.7 | > 50 | > 25 | 5.59 | 7.13 | –
10 | CC(C)(C)n1ncc2c1CCCC2NCc1ccc2c(c1)OCCO2 (stereo not shown) [UCSD-0811309] | 8.69 | 87 | 85 | 15 | > 25 | -4.43 | 2.92 | –
11 | NC(=O)c1ccc(N2CCCCC2)c(NC(=O)c2ccc(F)cc2F)c1 [UCSD-0811362] | 8.87 | 81 | 19.1 | > 25 | > 25 | 2.8 | 5.59 | –
12 | Cc1cn2c(n1)C(CNCC1=Cc3ccccc3OC1)CCC2 (stereo not shown) [UCSD-0812993] | > 2.78 | 93.1 | 66.8 | > 25 | > 25 | – | 24.6 | -0.92
13 | Cc1nc(C(=O)NC2CCN(CCOc3ccc(Br)cc3)CC2)cs1 [UCSD-0818164] | 13.6 | 98.3 | 32.1 | > 25 | > 25 | – | 35.2 | 17.63
14 | Cc1ncc(C(=O)NC2CCN(CCOc3ccc(Br)cc3)CC2)s1 [UCSD-0818166] | 15.8 | 96.5 | 32.8 | > 25 | > 25 | 1.78 | 7.96 | –
15 | CN1CCOC(C(=O)Nc2ccc3c(c2)nc(C(C)(C)C)n3C)C1 (stereo not shown) [UCSD-0818200] | 0.00222 | – | 88.4 | 13.4 | > 25 | – | 0.658 | –
16 | N#Cc1c(Cl)nsc1NCC1(c2ccccc2)CCC1 [UCSD-0818294] | 13.2 | 98.3 | 16.9 | > 25 | > 25 | – | 34.3 | 11.95
17 | O=C(CN1CCCC(c2ccn[nH]2)C1)Nc1nc2c(s1)CCCC2 (stereo not shown) [UCSD-0818422] | 4.53 | 95.9 | 6.65 | > 25 | > 25 | – | 8.88 | 7.13
18 | O=C(c1ccc(Br)o1)N1CCN(Cc2ccc(OC(F)(F)F)cc2)CC1 [UCSD-0819339] | 9.24 | 97.7 | 10.9 | > 25 | > 25 | 0 | 57.1 | –
19 | CCc1nc(CN2CCN(c3ncnc4cc(F)ccc34)CC2)no1 [UCSD-0819439] | 2.76 | 95.7 | 3.14 | > 25 | 6.37 | 13.2 | 64.7 | –
20 | COc1ccc(-c2nc(CN3CC(n4cc(C)cn4)C3)no2)cc1 [UCSD-0819446] | 11.2 | 82.5 | 6.87 | > 25 | > 25 | – | 1.19 | -12.79
21 | CC(NC(=O)c1cc(-c2cccc(Cl)c2)no1)C(=O)N1CCCC1 (stereo not shown) [UCSD-0819519] | 11 | 91.8 | 37.2 | > 25 | > 25 | – | 0.675 | 0.00
22 | CC(=O)c1c(F)cccc1N1CCC(Cc2cccnc2)CC1 [UCSD-0819611] | 4.23 | 116 | 7.02 | > 25 | 15.4 | 15.8 | 73 | –
23 | COc1cc(CN(C)C(=O)Cc2c(C)nn(C)c2C)ccc1OC(F)F [UCSD-0819780] | 2.11 | 80.1 | 6.77 | > 25 | > 25 | 7.57 | 55.1 | –
24 | CCc1ccc(-c2ncc3c(n2)N(C)CCN(CCN(C)C)C3=O)cc1 [UCSD-0824219] | 12.1 | 81.1 | 7.09 | > 25 | > 25 | – | 6.88 | 4.38
25 | Cc1ccc(Sc2ccc(CN3CCC4(CCCNC4=O)C3)o2)cc1 (stereo not shown) [UCSD-0825128] | 14.7 | 95 | 21.8 | > 25 | > 25 | – | 8.34 | -4.20

From PMC7155171, “Probing the Open Global Health Chemical Diversity Library for Multistage-Active Starting Points for Next-Generation Antimalarials” (ACS Infectious Diseases, 2020)
